This note sets out measurements from patent US12583861B2, “Derivatives of imidazo[4,5-d]pyridazine, their preparation and their therapeutic application” (SANOFI, priority 2021, dated 2026).

pEC50: −log10 of the molar value. Counter-ions that a name gives are not always drawn.

One assay addresses T1, human TLR7 (Homo sapiens, UniProt Q9NYK1).
T1 construct: host or cells: HEK293 (HEK-Blue hTLR7)
T1 sequence (Q9NYK1 27-1049): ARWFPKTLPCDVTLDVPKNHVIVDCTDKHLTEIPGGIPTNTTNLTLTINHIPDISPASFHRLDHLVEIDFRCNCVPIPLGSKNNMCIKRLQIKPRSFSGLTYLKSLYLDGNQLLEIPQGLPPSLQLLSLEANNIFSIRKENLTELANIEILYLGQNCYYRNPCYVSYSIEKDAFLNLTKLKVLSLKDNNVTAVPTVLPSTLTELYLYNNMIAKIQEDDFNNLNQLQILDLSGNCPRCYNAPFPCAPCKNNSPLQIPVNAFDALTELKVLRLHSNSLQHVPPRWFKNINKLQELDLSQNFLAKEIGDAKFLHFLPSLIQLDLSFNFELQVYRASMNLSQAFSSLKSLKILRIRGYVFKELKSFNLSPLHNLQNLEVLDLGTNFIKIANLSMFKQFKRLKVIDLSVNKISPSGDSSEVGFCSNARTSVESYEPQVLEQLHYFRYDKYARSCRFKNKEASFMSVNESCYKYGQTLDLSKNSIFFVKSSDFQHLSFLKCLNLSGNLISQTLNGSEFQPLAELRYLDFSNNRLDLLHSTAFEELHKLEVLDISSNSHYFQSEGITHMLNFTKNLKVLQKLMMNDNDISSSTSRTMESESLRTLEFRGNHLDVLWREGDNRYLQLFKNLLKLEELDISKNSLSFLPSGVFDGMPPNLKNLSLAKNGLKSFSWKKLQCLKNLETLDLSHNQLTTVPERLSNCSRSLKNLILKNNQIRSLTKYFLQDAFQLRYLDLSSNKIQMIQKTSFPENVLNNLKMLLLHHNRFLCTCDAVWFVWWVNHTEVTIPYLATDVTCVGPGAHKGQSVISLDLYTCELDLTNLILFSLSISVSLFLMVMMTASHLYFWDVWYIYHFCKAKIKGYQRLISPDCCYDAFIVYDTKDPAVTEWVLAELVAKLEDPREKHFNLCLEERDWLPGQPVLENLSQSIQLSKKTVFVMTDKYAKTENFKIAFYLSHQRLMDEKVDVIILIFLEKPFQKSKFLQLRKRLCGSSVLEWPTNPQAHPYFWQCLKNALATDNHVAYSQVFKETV
Nature of the assay: HEK-Blue hTLR7 reporter cell assay (SEAP, NF-kB/AP-1) for stimulation of human TLR7. In kind it is cell-based. Particulars: HEK-Blue hTLR7 cells, 24 h incubation, SEAP readout; read-out: TLR7_EC50. As to the method: (§1) The below tests, involving measuring the in vitro activity of some compounds of the disclosure on TLR7 and TLR8, were carried out using the HEK-Blue™ cells as reporter.
The activity described below, with respect to TLR7, TLR8, IFN-α2a, IL-6, IL29 and TNF-α, is given by the half maximal effective concentration (EC50), which corresponds to the concentration required to obtain a 50% of the activation. The lower the EC50, the less the concentration of the compound is required to produce 50% of maximum activation and the higher the potency.
(§2) In Vitro Assay for Studying the Stimulation of Human TLR7 and TLR8:
(§3) HEK-Blue™ hTLR7 Cells (#hkb-htlr7) and HEK-Blue™ hTLR8 Cells (#hkb-htlr8) from InvivoGen were used according to the manufacturer's instructions. These Reporter HEK293 cells were obtained by co-transfection of the hTLR7 or TLR8 gene and an optimized Secreted Embryonic Alkaline Phosphatase (SEAP) reporter gene which is placed under the control of the IFN-β minimal promoter fused to five NF-κB and AP-1-binding sites. Stimulation with a TLR7/8 ligand activates NF-kB and AP-1 which induce the production of SEAP. The cells are seeded in 96-well plate at 3.10E4 cells/well and incubated 18 to 24 h at 37° C., 5% CO2 before adding the compounds to evaluate. The cells are subsequently incubated with 3-fold serial dilutions of each of the compounds (0.01 to 20 μM) for 24 hours at 37° C., 5% CO2. Next, 20 μL of the supernatant is harvested and incubated with 200 μL of QUANTI-Blue™ Solution.

Another assay addresses T2, human TLR8 (Homo sapiens, UniProt Q9NR97).
T2 construct: host or cells: HEK293 (HEK-Blue hTLR8)
T2 sequence (Q9NR97 27-1041): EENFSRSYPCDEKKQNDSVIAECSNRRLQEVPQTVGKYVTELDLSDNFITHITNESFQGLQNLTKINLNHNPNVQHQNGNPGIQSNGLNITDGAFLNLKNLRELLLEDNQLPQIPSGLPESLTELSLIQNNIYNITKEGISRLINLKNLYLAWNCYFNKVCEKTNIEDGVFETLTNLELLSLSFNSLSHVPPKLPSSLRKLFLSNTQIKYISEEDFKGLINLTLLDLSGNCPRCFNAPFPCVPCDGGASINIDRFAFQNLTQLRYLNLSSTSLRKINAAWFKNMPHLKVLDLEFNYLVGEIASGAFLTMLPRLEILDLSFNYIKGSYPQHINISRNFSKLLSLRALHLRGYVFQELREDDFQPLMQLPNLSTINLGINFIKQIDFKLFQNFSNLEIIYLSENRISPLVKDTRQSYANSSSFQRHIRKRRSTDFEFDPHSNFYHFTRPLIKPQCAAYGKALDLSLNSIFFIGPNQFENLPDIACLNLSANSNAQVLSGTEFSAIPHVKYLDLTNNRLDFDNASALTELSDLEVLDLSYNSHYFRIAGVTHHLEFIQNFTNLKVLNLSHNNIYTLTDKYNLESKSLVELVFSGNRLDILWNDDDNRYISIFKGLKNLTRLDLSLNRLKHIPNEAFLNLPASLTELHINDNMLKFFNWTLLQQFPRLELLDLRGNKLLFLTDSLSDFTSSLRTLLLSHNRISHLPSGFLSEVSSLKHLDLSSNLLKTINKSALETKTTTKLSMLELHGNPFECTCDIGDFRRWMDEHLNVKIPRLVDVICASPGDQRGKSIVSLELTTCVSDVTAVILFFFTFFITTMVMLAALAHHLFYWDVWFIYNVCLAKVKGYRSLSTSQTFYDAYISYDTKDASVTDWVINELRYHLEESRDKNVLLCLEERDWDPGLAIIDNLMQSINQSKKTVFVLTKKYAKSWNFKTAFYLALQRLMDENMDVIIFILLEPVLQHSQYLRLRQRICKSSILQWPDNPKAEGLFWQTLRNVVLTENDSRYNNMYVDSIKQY
Nature of the assay: HEK-Blue hTLR8 reporter cell assay (SEAP, NF-kB/AP-1) for stimulation of human TLR8. Format: cell-based. Particulars: HEK-Blue hTLR8 cells, 24 h incubation, SEAP readout; read-out: TLR8_EC50. As to the method:
as §1, §2
as §3, with “The cells are subsequently incubated with 3-fold serial dilutions of each of the compounds (0.01 to 20 μM) for 24 hours at 37° C., 5% CO2.” left out

In the case of `CCCCc1nc2c(N)nnc(N(C)Cc3ccc(CN)cc3)c2n1C` [Compound 46, N7-(4-(aminomethyl)benzyl)-2-butyl-N7,1-dimethyl-1H-imidazo[4,5-d]pyridazine-4,7-diamine], the pEC50 is 5.21 on human TLR7 and 5.39 at human TLR8.
As for `CCCCc1nc2c(N)nnc(N(C)Cc3ccc(CN(C)CCOC)cc3)c2n1C` [Compound 47, 2-butyl-N7-(4-(((2-methoxyethyl)(methyl)amino)methyl)benzyl)-N7,1-dimethyl-1H-imidazo[4,5-d]pyridazine-4,7-diamine], the figures for the pEC50 at human TLR7 and at human TLR8 were 6.38 and 6.65, respectively.
For `CCCCc1nc2c(N)nnc(OC)c2n1Cc1ccc(OC)cc1` [Compound 50, 2-butyl-7-methoxy-1-(4-methoxybenzyl)-1H-imidazo[4,5-d]pyridazin-4-amine] the same measures were 6.57 and less than 4.70.
Turning to `CCCCc1nc2c(N)nnc(C3CCCCC3)c2n1Cc1ccc(OC)cc1` [Compound 51, 2-butyl-7-cyclohexyl-1-(4-methoxybenzyl)-1H-imidazo[4,5-d]pyridazin-4-amine], the pEC50 was 5.99 at human TLR7 and less than 4.70 on human TLR8.
With `CCCCc1nc2c(N)nnc(OCc3ccccc3)c2n1Cc1ccc(OC)cc1` [Compound 52, 7-(benzyloxy)-2-butyl-1-(4-methoxybenzyl)-1H-imidazo[4,5-d]pyridazin-4-amine], the pEC50 on human TLR7 is 6.26; on human TLR8, less than 4.70.
For `CCCCc1nc2c(N)nnc(NC)c2n1Cc1ccc(OC)cc1` [Compound 53, 2-butyl-1-(4-methoxybenzyl)-N7-methyl-1H-imidazo[4,5-d]pyridazine-4,7-diamine] the same measures were 6.11 and less than 4.70.
For the compound `CCCCc1nc2c(N)nnc(O[C@H]3CCOC3)c2n1Cc1ccc(OC)cc1` [Compound 54, (S)-2-butyl-1-(4-methoxybenzyl)-7-((tetrahydrofuran-3-yl)oxy)-1H-imidazo[4,5-d]pyridazin-4-amine], the pEC50 is 6.21 at human TLR7 and less than 4.70 at human TLR8.
Consider `CCCCc1nc2c(N)nnc(-c3ccco3)c2n1Cc1ccc(OC)cc1` [Compound 55, 2-butyl-7-(furan-2-yl)-1-(4-methoxybenzyl)-1H-imidazo[4,5-d]pyridazine-4-amine], for which the pEC50 on human TLR7 is 5.80; at human TLR8 it was less than 4.70.
For the compound `CCCCc1nc2c(N)nnc(OC3CCOC3)c2n1Cc1ccc(OC)cc1` (stereo not drawn) [Compound 56, 2-butyl-1-(4-methoxybenzyl)-7-((tetrahydrofuran-3-yl)oxy)-1H-imidazo[4,5-d]pyridazin-4-amine], the pEC50 at human TLR7 is 6.64; on human TLR8 it was less than 4.70.
Consider `CCCCc1nc2c(N)nnc(OC3CCOCC3)c2n1Cc1ccc(OC)cc1` [Compound 57, 2-butyl-1-(4-methoxybenzyl)-7-((tetrahydro-2H-pyran-4-yl)oxy)-1H-imidazo[4,5-d]pyridazin-4-amine], for which the pEC50 at human TLR7 was 6.46; at human TLR8, less than 4.70.
For `CCCCc1nc2c(N)nnc(OC3CCSC3)c2n1Cc1ccc(OC)cc1` (stereo not drawn) [Compound 58, 2-butyl-1-(4-methoxybenzyl)-7-((tetrahydrothiophen-3-yl)oxy)-1H-imidazo[4,5-d]pyridazin-4-amine] the same measures were 6.36 and less than 4.70.
Turning to `CCCCc1nc2c(N)nnc(C3CCOC3)c2n1Cc1ccc(OC)cc1` (stereo not drawn) [Compound 59, 2-butyl-1-(4-methoxybenzyl)-7-(tetrahydrofuran-3-yl)-1H-imidazo[4,5-d]pyridazin-4-amine], the values for the pEC50 on human TLR7 and at human TLR8 were 6.03 and less than 4.70, respectively.
In the case of `CCCCc1nc2c(N)nnc(C=C(C)C)c2n1Cc1ccc(OC)cc1` [Compound 60, 2-butyl-1-(4-methoxybenzyl)-7-(2-methylprop-1-en-1-yl)-1H-imidazo[4,5-d]pyridazin-4-amine], the pEC50 at human TLR7 is 6.09; at human TLR8, less than 4.70.
For `CCCCc1nc2c(N)nnc(CC(C)C)c2n1Cc1ccc(OC)cc1` [Compound 61, 2-butyl-7-isobutyl-1-(4-methoxybenzyl)-1H-imidazo[4,5-d]pyridazin-4-amine] the same measures were 5.93 and less than 4.70.
On to `CCCCc1nc2c(N)nnc(-c3ccsc3)c2n1Cc1ccc(OC)cc1` [Compound 62, 2-butyl-1-(4-methoxybenzyl)-7-(thiophen-3-yl)-1H-imidazo[4,5-d]pyridazin-4-amine], for which the pEC50 is 6.11 at human TLR7 and less than 4.70 on human TLR8.
For `CCCCc1nc2c(N)nnc(-c3cccs3)c2n1Cc1ccc(OC)cc1` [Compound 63, 2-butyl-1-(4-methoxybenzyl)-7-(thiophen-2-yl)-1H-imidazo[4,5-d]pyridazin-4-amine] the same measures were 5.93 and less than 4.70.
For `CCCCc1nc2c(N)nnc(-c3ccc[nH]3)c2n1Cc1ccc(OC)cc1` [Compound 64, 2-butyl-1-(4-methoxybenzyl)-7-(1H-pyrrol-2-yl)-1H-imidazo[4,5-d]pyridazin-4-amine hydrochloride] the same measures were 5.51 and less than 4.70.
Take `CCCCc1nc2c(N)nnc(C3=CCCCC3)c2n1Cc1ccc(OC)cc1` [Compound 66, 2-butyl-7-(cyclohex-1-en-1-yl)-1-(4-methoxybenzyl)-1H-imidazo[4,5-d]pyridazin-4-amine]: the pEC50 at human TLR7 is 5.54; on human TLR8 it was less than 4.70.
